Measured values as given in patent publication US4892736A, “Intra-pocket drug delivery devices for treatment of periodontal diseases” (The Forsyth Dental Infirmary for Children, priority 1988, dated 1990).
Where a name gives a salt, the structure may show the parent alone.

Tested on: cultivable periodontal microorganisms
Experiment: Concentration of tetracycline necessary to suppress growth of all cultivable periodontal microorganisms (agar plates)
Format: cell-based
Conditions: anaerobic, 35° C., 5 to 7 days
Method: Samples containing periodontal organisms taken from deep periodontal pockets of 5 patients were transferred to 10 ml of pre-reduced Ringer's solution, dispersed by 10 seconds of sonic oscillation at an amplitude of 10 microns, and dilutions of 1:20, 1:100, and 1:1000 were prepared. One-tenth milliliter of each dilution was streaked on trypticase soy agar containing 5% sheep blood and 0.3 μg/ml menadione in petri dishes. Identical plates were prepared containing 1, 8, 32, and 64 micrograms/milliliter of tetracycline hydrochloride. Inoculated plates were incubated at 35° C. in an anaerobic atmosphere at 80% nitrogen, 10% hydrogen, and 10% carbon dioxide for 5 to 7 days. Plates from dilutions providing separated colony growth were selected for counting to determine the total colony forming units on primary medium and each associated tetracycline-containing medium. Percentages of organisms grown at each concentration were computed. Values of 21.2%, 3.6%, 0.08%, and 0% were found on plates containing 1, 8, 32, and 64 micrograms/milliliter tetracycline respectively. These observations indicate that no cultivable periodontal organisms grow at tetracycline concentrations of 64 micrograms/milliliter, thereby establishing the primary design parameter for a local drug delivery system for periodontal therapy which would suppress growth of all cultivable periodontal microorganisms with continuous exposure of the organisms to tetracycline.

For `CN(C)C1C(=O)C(C(N)=O)=C(O)C2(O)C(=O)C3=C(O)c4c(O)cccc4C(C)(O)C3CC12` (centres unmarked) [tetracycline, tetracycline hydrochloride], which activity at 1 µg/mL (168 h, 1 microgram/milliliter tetracycline, % of colony forming units on primary medium, read-out: Percentage of organisms grown) is on record?
Its activity at 1 µg/mL is 21.2%.

What about the activity at 8 µg/mL (168 h, 8 micrograms/milliliter tetracycline, % of colony forming units on primary medium, read-out: Percentage of organisms grown) of the same compound?
Its activity at 8 µg/mL is 3.6%.

What about the activity at 32 µg/mL (168 h, 32 micrograms/milliliter tetracycline, % of colony forming units on primary medium, read-out: Percentage of organisms grown) of the same compound?
Its activity at 32 µg/mL is 0.08%.

And the activity at 64 µg/mL (168 h, 64 micrograms/milliliter tetracycline, % of colony forming units on primary medium, read-out: Percentage of organisms grown)?
Its activity at 64 µg/mL is 0%.

What about the MIC (tested 1, 8, 32, 64 micrograms/milliliter, read-out: Concentration at which no cultivable periodontal organisms grow) of the same compound?
Its MIC is 64 µg/mL.
